Laboratory results published in PubChem BioAssay AID1996.
Converted amounts (≈) assume the structure as drawn.

conditions: buffer; pH 7.4; 200.0 µM

solubility kinetic | SMILES
0.7 µg/mL (≈ 2.68 µM) | Cn1cc(/C=C/C(=O)c2ccccc2)c2ccccc21
> 39.3 µg/mL | Cc1ccc(CC2SC(N=C(N)N)=NC2=O)cc1 (stereo unspecified)
> 39.1 µg/mL | O=C(CN1CCOCC1)Nc1ccc2c(c1)CCC2
< 0.3 µg/mL | COc1cccc(-c2nc(-c3cccs3)no2)c1
> 36.9 µg/mL | O=C(Cn1c(=O)oc2ccccc21)N1CCCC1
3 µg/mL (≈ 8.76 µM) | COc1ccc(NC(=O)CN2C(=O)COc3ccccc32)cc1OC
32.4 µg/mL (≈ 120 µM) | Cc1cccc(N=C2C(=O)Nc3c(Cl)cccc32)c1
> 40.5 µg/mL | O=C1C2C3C=CC(CC3)C2C(=O)N1/N=C/c1ccco1 (stereo unspecified)
44.4 µg/mL (≈ 141 µM) | O=C(COC(=O)c1ccccn1)Nc1ccc2c(c1)OCCO2
24.6 µg/mL (≈ 71.4 µM) | O=[N+]([O-])C1=CC=C2C(=NC3(CCCCC3)N2O)C1=NC1CCCCC1
11.4 µg/mL (≈ 39.2 µM) | CCc1ccc(C(C)NC(=S)NC2CCCCC2)cc1 (stereo unspecified)
42.9 µg/mL (≈ 133 µM) | Cc1c(C)n(CCN(C)C)c2ncnc(NCc3ccccc3)c12
2.1 µg/mL (≈ 5.52 µM) | CCN(CC)C(=S)SCC(=O)Nc1ncc2c(n1)CC(C)(C)CC2=O
> 67 µg/mL | COc1cc(CC(=O)OCC(=O)N2CCN(C(=O)c3ccco3)CC2)cc(OC)c1OC
> 51.8 µg/mL | CCN(CCO)C(=S)Nc1cc(S(=O)(=O)N(C)C)ccc1C
> 42.4 µg/mL | Cc1nnc(SCC(=O)NC2CCCCC2)[nH]c1=O
> 37.1 µg/mL | NC(=O)CSc1nccn1Cc1ccccc1
> 48.4 µg/mL | Cc1ccc(S(=O)(=O)N2CCC(C(=O)NC3CC3)CC2)cc1
31.2 µg/mL (≈ 125 µM) | Cc1cccc(C)c1N=C1C(=O)Nc2ccccc21
16.4 µg/mL (≈ 46.5 µM) | COc1ccc(OCCNS(=O)(=O)c2cccc([N+](=O)[O-])c2)cc1
18 µg/mL (≈ 49.1 µM) | O=C(COC(=O)CNC(=O)c1ccc(Cl)cc1)NC1CCCCCC1
> 59.6 µg/mL | COc1ccc(N2CCN(C(=O)[C@H](C)N3C(=O)C4CC=CCC4C3=O)CC2)cc1 (stereo partly specified)
31.3 µg/mL (≈ 137 µM) | Oc1ccc2c(c1)c1c3n2CCNC3CCC1 (stereo unspecified)
38.2 µg/mL (≈ 149 µM) | Clc1ncn(CCOc2ccccc2)c1Cl
> 34.2 µg/mL | O=C(c1ccncc1)c1ccc([N+](=O)[O-])cc1

solubility kinetic | SMILES
25.1 µg/mL (≈ 138 µM) | CSc1cccc(NC(N)=O)c1
> 36.9 µg/mL | CC(=O)c1ccc(NC(=O)CN2CCCC2)cc1
> 52.3 µg/mL | COc1cccc(C(c2c(N)n(C)c(=O)n(C)c2=O)C(C)[N+](=O)[O-])c1 (stereo unspecified)
> 48 µg/mL | N#Cc1ccc(Cl)cc1NC(=O)CSc1cccc[n+]1[O-]
> 29 µg/mL | CC(=O)NCc1ccc(C(=O)O)cc1
> 35.1 µg/mL | O=C(O)c1nn(-c2ccc(F)cc2)ccc1=O
> 43.7 µg/mL | Cc1cc(C)c(NC(=O)COC(=O)C2CCCO2)c(C)c1 (stereo unspecified)
2.2 µg/mL (≈ 6.8 µM) | O=c1[nH]c2ccc(S(=O)(=O)Nc3ccc(Cl)cc3)cc2[nH]1
2.4 µg/mL (≈ 7.71 µM) | COC(=O)c1ccccc1NC(=O)c1ccc2c(c1)CC(C)O2 (stereo unspecified)
> 56.6 µg/mL | CN1CCN(S(=O)(=O)c2ccc(NC(=O)c3cccc(F)c3)cc2)CC1
> 47.2 µg/mL | CCc1nc2ccccc2n1CC(O)COCC1CC=CCC1 (stereo unspecified)
2.8 µg/mL (≈ 9.64 µM) | Cc1cnc(C(=O)Oc2ccc(-c3ccccc3)cc2)cn1
6.2 µg/mL (≈ 19.7 µM) | CCOc1ccc(Br)cc1C(=S)N1CCCC1
1 µg/mL (≈ 2.44 µM) | Cc1ccc2[nH]c(C(=O)N3CCN(C(c4ccccc4)c4ccccc4)CC3)cc2c1
> 48.6 µg/mL | Cc1cc(Cl)ccc1NC(=O)CCN1C(=O)NC(C)(C)C1=O
2.1 µg/mL (≈ 6.9 µM) | O=C1NC(c2ccc(Br)cc2)Oc2ccccc21 (stereo unspecified)
37.8 µg/mL (≈ 106 µM) | O=C1CN(S(=O)(=O)c2cc(Cl)ccc2Cl)c2ccccc2N1
> 42.4 µg/mL | Cc1ccc(-c2[nH]c3ccccc3c2SCCN)cc1
39.4 µg/mL (≈ 127 µM) | O=C(/C=C/c1cccc(F)c1)N1CCN(c2ccccn2)CC1
30.3 µg/mL (≈ 146 µM) | O=C1OC(CO)CN1Cc1ccccc1 (stereo unspecified)
1.1 µg/mL (≈ 3.88 µM) | N#Cc1nc(-c2ccc(F)cc2)oc1NCc1ccco1
5.6 µg/mL (≈ 14.5 µM) | CN(CC(=O)Nc1cccc(F)c1)C(=O)c1ccc(-c2ccc(Cl)cc2)o1
2.7 µg/mL (≈ 8.12 µM) | O=C(Nc1ccc(N2CCOCC2)cc1)c1cccc2ccccc12
> 44 µg/mL | N#C/C(=C\c1cccnc1)C(=O)Nc1ccc(C(=O)O)cc1
> 49 µg/mL | CC(=O)N1Cc2ccccc2CC1C(=O)NCc1ccccc1F (stereo unspecified)

Second part, the compound before the results:

SMILES | solubility kinetic
Cc1cc(C)nc(SCC(=O)c2ccc(F)cc2F)n1 | > 44.1 µg/mL
O=C(Nc1cc(S(=O)(=O)N2CCCC2)ccc1Cl)c1ccncc1 | > 54.9 µg/mL
COC(=O)c1cc(S(=O)(=O)NCCCc2ccco2)c[nH]1 | > 46.9 µg/mL
S=C1SCN(Cc2cccnc2)CN1Cc1ccccc1 | 38.9 µg/mL (≈ 123 µM)
O=C(Nc1ccc2c(c1)OCO2)c1cc(-c2ccccc2Cl)on1 | 1.7 µg/mL (≈ 4.96 µM)
C#CCn1ccc(O)c(Cc2ccccc2)c1=O | > 35.9 µg/mL
CC(=O)N1c2ccccc2C(CBr)=CC1(C)C | 31.8 µg/mL (≈ 108 µM)
Cc1csc(NC(=O)CSc2nncc(=O)n2N)n1 | > 44.8 µg/mL
CCC1CCC/C1=N\NC(=O)c1ccc(Cl)cc1 (stereo unspecified) | > 39.7 µg/mL
O=C(COc1cccc2c1CCNC2=O)Nc1ccc(F)cc1 | > 47.1 µg/mL
O=[N+]([O-])CC(c1ccccc1)P(=O)(c1ccccc1)c1ccccc1 (stereo unspecified) | 9.1 µg/mL (≈ 25.9 µM)
O=C(NCc1ccccc1)c1ccccc1Br | 36.4 µg/mL (≈ 125 µM)
O=c1cc(-c2ccccc2O)nc(-c2ccccc2)[nH]1 | 0.8 µg/mL (≈ 3.03 µM)
COC(=O)c1ccccc1N1CCS(=O)(=O)CC1 | > 40.4 µg/mL
O=C(OCC(=O)N1CCOCC1)c1ccc(Br)cc1 | > 49.2 µg/mL
Cn1c(=O)c2c([nH]c(=S)n2CCCc2ccccc2)n(C)c1=O | 35.8 µg/mL (≈ 108 µM)
S=c1nccc(-c2ccc(Cl)cc2)[nH]1 | 26.7 µg/mL (≈ 120 µM)
CCCCn1c(SCC(N)=O)nc2sc3c(c2c1=O)CCC3 | 1.9 µg/mL (≈ 5.63 µM)
O=C(COC(=O)/C=C/c1ccccc1Cl)Nc1cccnc1Cl | 2.9 µg/mL (≈ 8.26 µM)
COc1ccc(C(=O)Cn2c(=O)oc3ccc(C)cc32)cc1 | < 0.6 µg/mL
CCOCCCNc1c(CC)c(C)c(C#N)c2nc3ccccc3n12 | 6.5 µg/mL (≈ 19.3 µM)
Cc1ccc(C(=O)OCC(=O)Nc2ccccc2Cl)c(O)c1 | 0.8 µg/mL (≈ 2.5 µM)
COc1ccc(C(=O)CC(=O)C(=O)Nc2cccc(C(C)=O)c2)cc1 | 13.9 µg/mL (≈ 41 µM)
CCn1c(C)c(C(=O)Nc2ccc(OC)cc2)c2cc(OC)ccc21 | 0.4 µg/mL (≈ 1.18 µM)

SMILES | solubility kinetic
CN(C)C(=O)c1cc(C(=O)c2ccc(C(F)(F)F)cc2)c[nH]1 | 1.6 µg/mL (≈ 5.16 µM)
Cc1c(C(=O)N2C[C@@H](C)O[C@@H](C)C2)oc2c(F)cccc12 | > 43.7 µg/mL
CCC(C)NC(=O)c1cc2cc3ccc(OC)cc3nc2o1 (stereo unspecified) | 30.4 µg/mL (≈ 102 µM)
Clc1c2c(nc3ccccc13)CCC2 | 4 µg/mL (≈ 19.6 µM)
CN1CCN/C1=C(/C(Cl)=C(Cl)Cl)[N+](=O)[O-] | > 40.9 µg/mL
O=C(Nc1nccs1)C1=COCCO1 | > 31.8 µg/mL
CCCCS(=O)(=O)N1CCCC(C(=O)N2CCOCC2)C1 (stereo unspecified) | 42.4 µg/mL (≈ 133 µM)
COC(=O)c1ccccc1N=Nc1c(N)n[nH]c1N | > 39 µg/mL
O=C(CCCOc1ccccc1)NC(=S)Nc1ccccc1 | 1.8 µg/mL (≈ 5.73 µM)
Cc1cc(C)c(C)c(S(=O)(=O)NCCCN2CCOCC2)c1C | > 51.1 µg/mL
COc1ccc(N(Cc2cc3cc(C)ccc3[nH]c2=O)C(C)=O)cc1 | 47 µg/mL (≈ 140 µM)
S=C(Nc1cc(Cl)cc(Cl)c1)N1CCCC1 | 3 µg/mL (≈ 10.9 µM)
O=C(CN1C(=O)C2CCCCC2C1=O)Nc1cccc(C(F)(F)F)c1 (stereo unspecified) | > 53.1 µg/mL
COc1ccc(/C=C2\N=C3CCCN3C2=O)cc1 | > 36.3 µg/mL
O=S(=O)(Cc1ccccc1)NCCc1ccc(F)cc1 | 34.3 µg/mL (≈ 117 µM)
COc1ccc(CC(=O)Nc2ccc3c(c2)C(=O)N(CCC(=O)O)C3=O)cc1 | 53.2 µg/mL (≈ 139 µM)
Cc1cc2[nH]c3ccccc3c2cn1 | > 27.3 µg/mL
CCOC(=O)c1cc(S(=O)(=O)NC2CCCCC2)cn1C | 43.9 µg/mL (≈ 140 µM)
COC(=O)Cn1c2ccc(OC)cc2c2nc(C)sc21 | > 43.6 µg/mL
Cc1cc(C)cc(OCC(=O)OCc2cc([N+](=O)[O-])cc3c2OCOC3)c1 | 3.9 µg/mL (≈ 10.4 µM)
C=CCNC(=O)c1ccccc1CCc1ccccc1 | > 39.8 µg/mL
CN(C)c1cccc(C(=O)NCC(c2ccco2)N(C)C)c1 (stereo unspecified) | > 45.2 µg/mL
NS(=O)(=O)c1ccc(CNC(=O)C(c2ccccc2)c2ccccc2)cc1 | 56.1 µg/mL (≈ 147 µM)
Cc1cc([N+](=O)[O-])nn1CC(=O)NCCCN1CCOCC1 | > 46.7 µg/mL

SMILES | solubility kinetic
Oc1ccc(-c2nccc(-c3ccccn3)n2)cc1 | 12.6 µg/mL (≈ 50.5 µM)
Cn1nc(C(=O)NC2CCC(O)CC2)c2ccccc2c1=O (stereo unspecified) | > 45.2 µg/mL
CC(C)[C@H](NC(=O)N1CC(=O)Nc2ccccc21)C(=O)N1CCC[C@@H]1C(=O)O | > 58.3 µg/mL
Brc1ccc(-c2nc(-c3ccncc3)no2)cc1 | < 0.2 µg/mL
N#Cc1c(-c2ccc(F)cc2)ccnc1N1CCOCC1 | > 42.5 µg/mL
Cc1ccc(Cl)c(OCC(=O)OCC(=O)c2ccc[nH]2)c1 | 8.7 µg/mL (≈ 28.3 µM)
CCOc1ccc(C(=O)NC(C)CCc2ccccc2)cc1 (stereo unspecified) | 2.5 µg/mL (≈ 8.41 µM)
COc1ccccc1NC(=S)N(Cc1cccs1)C1CCCC1 | 6 µg/mL (≈ 17.3 µM)
CCC(=O)NC(c1ccccc1)c1c(O)ccc2ccccc12 (stereo unspecified) | 0.9 µg/mL (≈ 2.95 µM)
CC(O)CN1CC(O)=C(c2nc3ccccc3s2)C1=N (stereo unspecified) | 17.8 µg/mL (≈ 61.5 µM)
Cn1c(=O)c2c(ncn2CC(=O)OCC(=O)Nc2ccc(F)cc2Cl)n(C)c1=O | > 63.6 µg/mL
Fc1cc(F)c2nc(N3CCCC3)sc2c1 | 9.4 µg/mL (≈ 39.1 µM)
CC(C)(C)c1cc2ncnc(N3CCCCC3)c2s1 | 10.5 µg/mL (≈ 38.1 µM)
O=C1N=C(N2CCOCC2)S/C1=C/c1cc2c(cc1[N+](=O)[O-])OCO2 | 44.8 µg/mL (≈ 123 µM)
CN1c2ccccc2C(=O)NC1c1ccc([N+](=O)[O-])s1 (stereo unspecified) | 31.2 µg/mL (≈ 108 µM)
CSc1nsc(SCC(=O)NCc2ccc(C)cc2)n1 | 11.8 µg/mL (≈ 36.3 µM)
O=C(NCCCn1ccnc1)c1cccc(Br)c1 | 46.2 µg/mL (≈ 150 µM)
O=C1c2ccccc2NC(c2ccc(F)cc2)N1Cc1ccccc1 (stereo unspecified) | 1.4 µg/mL (≈ 4.21 µM)
CCOc1ccc(NC(=O)CCS(=O)(=O)c2ccc(C)cc2)cc1 | > 52.1 µg/mL
CCOC(=O)CNC(=O)CSc1nc(-c2ccccc2)ns1 | > 50.6 µg/mL
NC(CSCc1cccc(Br)c1)C(=O)O (stereo unspecified) | > 43.5 µg/mL
Cc1nc2ccc(NC(=O)c3ccc(=O)[nH]c3)cc2s1 | 13.7 µg/mL (≈ 48 µM)
Cc1ccc(C(=O)N2CCC(C(=O)c3c(C)cc(C)cc3C)CC2)cc1 | 24.1 µg/mL (≈ 69 µM)
